According to paper PMC5678585, “Screening a protein kinase inhibitor library against Plasmodium falciparum” (Malaria Journal, 2017):
Where a name gives a salt, the structure may show the parent alone. Read-outs that look alike come from different tables or passages of the source.

Key:
[1] = system: Plasmodium falciparum 3D7; assay: microbe, parasite or virus in culture; settings: for Percentage inhibition of the growth of Plasmodium falciparum: Prestwick Library pilot screen, duplicate; for inhibition at 5 µM: 3D7, read-out: Percentage inhibition of the growth of Plasmodium falciparum, Prestwick Library pilot screen, screening conc. 0.005 mM, duplicate; for inhibition at 6 µM: 3D7, read-out: Percentage inhibition of the growth of Plasmodium falciparum, Prestwick Library pilot screen, screening conc. 0.006 mM, duplicate; for inhibition at 8 µM: 3D7, read-out: Percentage inhibition of the growth of Plasmodium falciparum, Prestwick Library pilot screen, screening conc. 0.008 mM, duplicate
Experimental: Growth inhibition was quantified using a fluorescence assay utilizing the binding of SYBR Green I to double stranded DNA, which emits a fluorescent signal at 528 nm after excitation at 485 nm. The SYBR Green assay system was adapted to maximize robustness and to align with available automation systems. The Prestwick Library then used as a pilot screen to validate the performance of the optimized assay. […] Single point screens were carried out, and the potency of compounds of interest was determined in duplicate on two independent occasions. A 96-well [^3H]-Hypoxanthine incorporation assay was also developed as a secondary assay in order to validate key compounds from each hit series in an orthogonal platform.
(§1) All data were processed using IDBS ActivityBase. […] The formula used to calculate Z’ is 1-3×(StDev_high+StDev_low)/ABS(Mean_high-Mean_low) .
Two independent assays were run.

[2] = system: normal diploid human fibroblasts (MRC-5 pd30); assay: in vitro; format: cell-based
Experimental: Cells were plated and incubated overnight to allow them to adhere as monolayers. A working stock of each test compound was transferred to an intermediate 384-well plate and pre-diluted with minimum essential media (MEM). The pre-diluted stocks were then transferred onto the cell monolayers, and the plates were incubated for 68 h. Resazurin, to a final concentration of 50 μM was added to each well, after which plates were incubated for a further 3 h and measured for fluorescence (λ ex = 528 nm, λ em = 590 nm).
as §1
All EC50 Curve fitting was undertaken using XLFit version 4.2 using Model 205 with the following 4 parametric equation: y=A+B-A/1+[…], where A = % inhibition at bottom, B = % inhibition at top, C = EC50, D = slope, x = inhibitor concentration and y = % inhibition.

[3] = Plasmodium falciparum, 3D7, read-out: Percentage inhibition of the growth of Plasmodium falciparum, Prestwick Library pilot screen, screening conc. 0.007 mM, duplicate
[4] = Plasmodium falciparum, 3D7, read-out: Percentage inhibition of the growth of Plasmodium falciparum, Prestwick Library pilot screen, screening conc. 0.004 mM, duplicate
[5] = Plasmodium falciparum, read-out: Percentage inhibition of the growth of Plasmodium falciparum
[6] = Plasmodium falciparum, 3D7, read-out: Percentage inhibition of the growth of Plasmodium falciparum, Prestwick Library pilot screen, screening conc. 0.003 mM, duplicate

C=C[C@H]1CN2CC[C@H]1C[C@H]2[C@H](O)c1ccnc2ccccc12 [(-)-Cinchonidine, reference compound]
Percentage inhibition of the growth of Plasmodium falciparum ([1]; screening conc. 0.007 mM): 100 ± 1%

COc1ccc2c(c1OC)CN1CCc3cc4c(cc3C1C2)OCO4 (stereo not drawn) [(d,l)-Tetrahydroberberine, reference compound]
Percentage inhibition of the growth of Plasmodium falciparum ([1]; screening conc. 0.006 mM): 83 ± 2%

COc1ccc(C[C@H]2NC[C@H](O)[C@H]2OC(C)=O)cc1 [Anisomycin, reference compound]
Percentage inhibition of the growth of Plasmodium falciparum ([1]; screening conc. 0.008 mM): 102 ± 2%

C[C@@H]1CC[C@H]2[C@@H](C)C(=O)O[C@@H]3O[C@@]4(C)CC[C@@H]1[C@]32OO4 [Artemisinin, reference compound]
inhibition at 7 µM [1, 3]: 99.5 ± 0.1%
Percentage inhibition of the growth of Plasmodium falciparum ([1]; screening conc. 0.007 mM): 100%

COc1ccc(CCN2CCC(Nc3nc4ccccc4n3Cc3ccc(F)cc3)CC2)cc1 [Astemizole, reference compound]
inhibition at 4 µM [1, 4]: 97.3 ± 0.8%

O=C1C(O)=C([C@H]2CC[C@H](c3ccc(Cl)cc3)CC2)C(=O)c2ccccc21 [Atovaquone, reference compound]
inhibition at 5 µM ([1]; Plasmodium falciparum): 99 ± 2%

C[N+](C)(CCOc1ccccc1)Cc1ccccc1.O=C([O-])c1cc2ccccc2cc1O [Bephenium hydroxynaphthoate, reference compound]
Percentage inhibition of the growth of Plasmodium falciparum ([1]; screening conc. 0.005 mM): 55.1 ± 0.5%

COc1ccc2cc3[n+](cc2c1OC)CCc1cc2c(cc1-3)OCO2 [Berberine chloride, reference compound]
inhibition at 5 µM ([1]; Plasmodium falciparum): 99 ± 2%

CCCCOc1ccc(CC(=O)NO)cc1 [Bufexamac, reference compound]
inhibition at 9 µM ([1]; Plasmodium falciparum, 3D7, read-out: Percentage inhibition of the growth of Plasmodium falciparum, Prestwick Library pilot screen, screening conc. 0.009 mM, duplicate): 69 ± 2%

CC[C@H]1CN2CCc3cc(OC)c(OC)cc3[C@@H]2C[C@@H]1C[C@H]1NCCc2cc(O)c(OC)cc21.Cl.Cl.O.O.O.O.O.O.O [Cephaeline dihydrochloride heptahydrate, reference compound]
Percentage inhibition of the growth of Plasmodium falciparum ([1]; screening conc. 0.003 mM): 101 ± 3%

[H]/N=C(\N/C(=N/[H])NCCCCCCNC(=N)NC(=N)Nc1ccc(Cl)cc1)Nc1ccc(Cl)cc1 [Chlorhexidine, reference compound]
inhibition at 4 µM [1, 4]: 98 ± 1%

CCN(CC)CCCC(C)Nc1ccnc2cc(Cl)ccc12 (stereo not drawn) [Chloroquine diphosphate, reference compound]
inhibition at 4 µM [1, 5]: 104 ± 1%

C=C[C@H]1C[N@@]2CC[C@H]1C[C@@H]2[C@@H](O)c1ccnc2ccccc12 [Cinchonine, reference compound]
inhibition at 7 µM [1, 3]: 101 ± 5%

CCC(=O)O[C@]1(C(=O)CCl)[C@@H](C)C[C@H]2[C@@H]3CCC4=CC(=O)C=C[C@]4(C)[C@@]3(F)[C@@H](O)C[C@@]21C [Clobetasol propionate, reference compound]
inhibition at 4 µM [1, 4]: 50 ± 16%

Cc1cc(NC(=O)c2cn(-c3ccccc3)nc2-c2cccs2)[nH]n1 [Compound A0012]
LLE (ligand-lipophilicity efficiency) ([1]; Table 8, MMV03 SAR): 1.9
EC50 ([1]; read-out: P. fal. EC50, Table 8, MMV03 SAR): 6 µM
EC50 ([2]; Table 8, MMV03 SAR, read-out: MRC5 EC50): 24 µM

C[C@@H]1C[C@@H]([C@H](O)CC2CC(=O)NC(=O)C2)C(=O)[C@@H](C)C1 [Cycloheximide, reference compound]
inhibition at 7 µM [1, 5]: 103.1 ± 0.1%

COc1cccc2c1C(=O)c1c(O)c3c(c(O)c1C2=O)C[C@@](O)(C(C)=O)C[C@@H]3O[C@H]1C[C@H](N)[C@H](O)[C@H](C)O1 [Daunorubicin hydrochloride, reference compound]
inhibition at 4 µM [1, 5]: 132 ± 1%

C[N+](C)(C)CCCCCCCCCC[N+](C)(C)C [Decamethonium bromide, reference compound]
inhibition at 5 µM ([1]; Plasmodium falciparum): 64 ± 3%

CN(CCCCCCCCCCN(C)C(=O)Oc1cccc([N+](C)(C)C)c1)C(=O)Oc1cccc([N+](C)(C)C)c1 [Demecarium bromide, reference compound]
inhibition at 3 µM [1, 5]: 104 ± 2%

COc1cc2nc(N3CCN(C(=O)C4COc5ccccc5O4)CC3)nc(N)c2cc1OC (stereo not drawn) [Doxazosin mesylate, reference compound]
inhibition at 4 µM [1, 4]: 84 ± 0.6%

COc1cccc2c1C(=O)c1c(O)c3c(c(O)c1C2=O)C[C@@](O)(C(=O)CO)C[C@@H]3O[C@H]1C[C@H](N)[C@H](O)[C@H](C)O1 [Doxorubicin hydrochloride, reference compound]
inhibition at 3 µM [1, 6]: 137 ± 2%

CC[C@H]1CN2CCc3cc(OC)c(OC)cc3[C@@H]2C[C@@H]1C[C@H]1NCCc2cc(OC)c(OC)cc21 [Emetine dihydrochloride, reference compound]
inhibition at 4 µM [1, 4]: 103 ± 2%

Br.CC[C@H]1CN2CCC1C[C@H]2[C@H](O)c1ccnc2ccc(OC)cc12.O (stereo partly drawn) [Hydroquinine hydrobromide hydrate, reference compound]
Percentage inhibition of the growth of Plasmodium falciparum ([1]; screening conc. 0.005 mM): 99 ± 2%

OC(c1cc(C(F)(F)F)nc2c(C(F)(F)F)cccc12)C1CCCCN1 (stereo not drawn) [Mefloquine hydrochloride, reference compound]
inhibition at 5 µM ([1]; Plasmodium falciparum): 97.4 ± 0.4%

CN1C[C@H](CNC(=O)OCc2ccccc2)C[C@@H]2c3cccc4c3c(cn4C)C[C@H]21 [Metergoline, reference compound]
inhibition at 5 µM ([1]; Plasmodium falciparum): 56 ± 2%

CN(Cc1cnc2nc(N)nc(N)c2n1)c1ccc(C(=O)N[C@@H](CCC(=O)O)C(=O)O)cc1 [Methotrexate, reference compound]
inhibition at 4 µM [1, 4]: 100.9 ± 0.7%

O=C1c2c(O)ccc(O)c2C(=O)c2c(NCCNCCO)ccc(NCCNCCO)c21 [Mitoxantrone dihydrochloride, reference compound]
inhibition at 4 µM [1, 4]: 140 ± 2%

COc1c(C)c2c(c(O)c1C/C=C(\C)CCC(=O)O)C(=O)OC2 [Mycophenolic acid, reference compound]
inhibition at 6 µM ([1]; Plasmodium falciparum): 63 ± 3%

CC(=O)O[C@H]1C(=O)[C@@]2(C)[C@H]([C@H](OC(=O)c3ccccc3)[C@]3(O)C[C@H](OC(=O)[C@H](O)[C@@H](NC(=O)c4ccccc4)c4ccccc4)C(C)=C1C3(C)C)[C@]1(OC(C)=O)CO[C@@H]1C[C@@H]2O [Paclitaxel, reference compound]
inhibition at 2 µM ([1]; Plasmodium falciparum, 3D7, read-out: Percentage inhibition of the growth of Plasmodium falciparum, Prestwick Library pilot screen, screening conc. 0.002 mM, duplicate): 65 ± 2%

N=C(N)c1ccc(OCCCCCOc2ccc(C(=N)N)cc2)cc1 [Pentamidine isethionate, reference compound]
inhibition at 3 µM [1, 6]: 100 ± 4%

COc1cc(NC(C)CCCN)c2ncccc2c1 (stereo not drawn) [Primaquine diphosphate, reference compound]
inhibition at 4 µM [1, 4]: 100 ± 4%

[H]/N=C(\N/C(=N/[H])Nc1ccc(Cl)cc1)NC(C)C [Proguanil hydrochloride, reference compound]
inhibition at 7 µM [1, 3]: 49 ± 4%

CCCNCC(O)COc1ccccc1C(=O)CCc1ccccc1 (stereo not drawn) [Propafenone hydrochloride, reference compound]
inhibition at 5 µM ([1]; Plasmodium falciparum): 99 ± 1%

COc1ccc(C[C@H](N)C(=O)N[C@H]2[C@@H](O)[C@H](n3cnc4c(N(C)C)ncnc43)O[C@@H]2CO)cc1 [Puromycin dihydrochloride, reference compound]
inhibition at 4 µM [1, 4]: 96 ± 5%

CCc1nc(N)nc(N)c1-c1ccc(Cl)cc1 [Pyrimethamine, reference compound]
inhibition at 8 µM ([1]; Plasmodium falciparum): 101 ± 2%

CCN(CC)CCCC(C)Nc1c2ccc(Cl)cc2nc2ccc(OC)cc12 (stereo not drawn) [Quinacrine dihydrochloride dihydrate, reference compound]
inhibition at 4 µM [1, 4]: 100 ± 2%

C=C[C@H]1CN2CC[C@H]1C[C@@H]2[C@@H](O)c1ccnc2ccc(OC)cc12.Cl.O [Quinidine hydrochloride monohydrate, reference compound]
Percentage inhibition of the growth of Plasmodium falciparum ([1]; screening conc. 0.005 mM): 100 ± 2%

CCCCCCCCNC(C)C(O)c1ccc(SC(C)C)cc1 (stereo not drawn) [Suloctidil, reference compound]
inhibition at 6 µM ([1]; Plasmodium falciparum): 101 ± 1%

CCCCCCCCCCCCCCCC[N+](C)(C)CCN(Cc1ccc(OC)cc1)c1ncccn1 [Thonzonium bromide, reference compound]
inhibition at 3 µM [1, 6]: 70 ± 1%

Nc1nc(N)c2nc(-c3ccccc3)c(N)nc2n1 [Triamterene, reference compound]
inhibition at 8 µM ([1]; Plasmodium falciparum): 69 ± 1%

COc1cccc2c1C(=O)c1c(O)c3c(c(O)c1C2=O)C[C@@](O)(C(=O)CO)C[C@@H]3O[C@H]1C[C@H](N)[C@H](O)[C@H](C)O1 [doxorubicin, reference compound]
EC50 ([2]; Homo sapiens, MRC5, MRC-5 counter-screen plates, read-out: potency range (standard reference compound)): 0.2 to 0.4 µM

Verteporfin [reference compound]
Percentage inhibition of the growth of Plasmodium falciparum ([1]; screening conc. 0.003 mM): 95 ± 2%
